In the NIST ThermoML archive (doi:10.1021/je060271a):
Values joined by “and” are separate entries in the source; they are usually repeats but may differ in a detail not shown here. Identical values can stand only once.

Conditions: Liquid, Vibrating tube method

CCCCCCCC(=O)OCC(COC(=O)CCCCCCC)(COC(=O)CCCCCCC)COC(=O)CCCCCCC [pentaerythritol tetraoctanoate]
Conditions	mass density
303.15 K, 32860 kPa	974.3 kg/m3
303.15 K, 32891 kPa	974.3 kg/m3
303.15 K, 32922 kPa	974.2 kg/m3
303.15 K, 32960 kPa	974.3 kg/m3
303.15 K, 32992 kPa	974.4 kg/m3
303.15 K, 33022 kPa	974.3 kg/m3
303.15 K, 33060 kPa	974.4 kg/m3
303.15 K, 33092 kPa	974.4 kg/m3
303.15 K, 33129 kPa	974.4 kg/m3
303.15 K, 33161 kPa	974.4 kg/m3
303.15 K, 33192 kPa	974.4 kg/m3
303.15 K, 33231 kPa	974.5 kg/m3
303.15 K, 33263 kPa	974.4 kg/m3
303.15 K, 33295 kPa	974.5 kg/m3
303.15 K, 33327 kPa	974.5 kg/m3
303.15 K, 33366 kPa	974.6 kg/m3
303.15 K, 33398 kPa	974.6 kg/m3
303.15 K, 33437 kPa	974.6 kg/m3
303.15 K, 33469 kPa	974.5 kg/m3
303.15 K, 33502 kPa	974.6 kg/m3
303.15 K, 33541 kPa	974.8 kg/m3
303.15 K, 33574 kPa	974.6 kg/m3
303.15 K, 33607 kPa	974.6 kg/m3
303.15 K, 33647 kPa	974.7 kg/m3
303.15 K, 33682 kPa	974.8 kg/m3
303.15 K, 33716 kPa	974.7 kg/m3
303.15 K, 33760 kPa	974.6 kg/m3
303.15 K, 33796 kPa	974.8 kg/m3
303.15 K, 33832 kPa	974.9 kg/m3
303.15 K, 33864 kPa	974.9 kg/m3
303.15 K, 33892 kPa	974.7 kg/m3
303.15 K, 33915 kPa	974.9 kg/m3
303.15 K, 33938 kPa	974.8 kg/m3
303.15 K, 33965 kPa	975 kg/m3
303.15 K, 33988 kPa	974.9 kg/m3
303.15 K, 34016 kPa	974.8 kg/m3
303.15 K, 34039 kPa	974.9 kg/m3
303.15 K, 34062 kPa	975 kg/m3
303.15 K, 34092 kPa	974.9 kg/m3
303.15 K, 34116 kPa	975 kg/m3
303.15 K, 34141 kPa	974.9 kg/m3
303.15 K, 34166 kPa	975 kg/m3
303.15 K, 34196 kPa	974.9 kg/m3
303.15 K, 34222 kPa	975 kg/m3
303.15 K, 34255 kPa	975.2 kg/m3
303.15 K, 34284 kPa	975.1 kg/m3
303.15 K, 34313 kPa	975 kg/m3
303.15 K, 34325 kPa	975 kg/m3
303.15 K, 34326 kPa	975.1 kg/m3
303.15 K, 34328 kPa	975.1 kg/m3
303.15 K, 34329 kPa	975.2 kg/m3
303.15 K, 34330 kPa	975.2 kg/m3
303.15 K, 34332 kPa	975.2 kg/m3
303.15 K, 34333 kPa	975.1 kg/m3 and 975.2 kg/m3
303.15 K, 34335 kPa	975.1 kg/m3
303.15 K, 34336 kPa	975 kg/m3
303.15 K, 34337 kPa	975 kg/m3
303.15 K, 34339 kPa	975 kg/m3
303.15 K, 34340 kPa	975 kg/m3 and 975.1 kg/m3
303.15 K, 34342 kPa	975 kg/m3
303.15 K, 34343 kPa	975 kg/m3
303.15 K, 34349 kPa	975.1 kg/m3
303.15 K, 34350 kPa	975 kg/m3
303.15 K, 34361 kPa	975.2 kg/m3
303.15 K, 34371 kPa	975.2 kg/m3
303.15 K, 34374 kPa	975 kg/m3
303.15 K, 34375 kPa	975.2 kg/m3
303.15 K, 34377 kPa	975.2 kg/m3
303.16 K, 3295.7 kPa	957.4 kg/m3
303.16 K, 3309.7 kPa	957.5 kg/m3
303.16 K, 3323.8 kPa	957.4 kg/m3
303.16 K, 3335.4 kPa	957.5 kg/m3
303.16 K, 3349.9 kPa	957.5 kg/m3
303.16 K, 3364.5 kPa	957.5 kg/m3
303.16 K, 3376.5 kPa	957.4 kg/m3
303.16 K, 3390.8 kPa	957.6 kg/m3
303.16 K, 3405.4 kPa	957.4 kg/m3
303.16 K, 3418 kPa	957.6 kg/m3
303.16 K, 3432.9 kPa	957.5 kg/m3
303.16 K, 3447.8 kPa	957.5 kg/m3
303.16 K, 3460.5 kPa	957.5 kg/m3
303.16 K, 3475.7 kPa	957.5 kg/m3
303.16 K, 3490.8 kPa	957.6 kg/m3
303.16 K, 3504 kPa	957.5 kg/m3
303.16 K, 3519.7 kPa	957.6 kg/m3
303.16 K, 3535.3 kPa	957.7 kg/m3
303.16 K, 3548.8 kPa	957.5 kg/m3
303.16 K, 3564.8 kPa	957.5 kg/m3
303.16 K, 3593.9 kPa	957.6 kg/m3
303.16 K, 3609.8 kPa	957.6 kg/m3
303.16 K, 3626.1 kPa	957.6 kg/m3
303.16 K, 3640.3 kPa	957.7 kg/m3
303.16 K, 3656.9 kPa	957.6 kg/m3
303.16 K, 3671 kPa	957.7 kg/m3
303.16 K, 3688.1 kPa	957.8 kg/m3
323.14 K, 32674 kPa	960.8 kg/m3
323.14 K, 32807 kPa	961 kg/m3
323.15 K, 104.51 kPa	940.7 kg/m3
323.15 K, 104.52 kPa	940.7 kg/m3 and 940.6 kg/m3
323.15 K, 105.05 kPa	940.7 kg/m3
323.15 K, 105.56 kPa	940.7 kg/m3
323.15 K, 107.29 kPa	940.7 kg/m3
323.15 K, 110.42 kPa	940.7 kg/m3
323.15 K, 119.65 kPa	940.6 kg/m3
323.15 K, 137.02 kPa	940.6 kg/m3
323.15 K, 166.4 kPa	940.7 kg/m3
323.15 K, 245.49 kPa	940.7 kg/m3
323.15 K, 268.79 kPa	940.8 kg/m3
323.15 K, 281.82 kPa	940.8 kg/m3
323.15 K, 299.57 kPa	941 kg/m3
323.15 K, 315.89 kPa	940.9 kg/m3
323.15 K, 333.79 kPa	940.8 kg/m3
323.15 K, 351.71 kPa	940.9 kg/m3
323.15 K, 362.82 kPa	940.9 kg/m3
323.15 K, 374.29 kPa	940.8 kg/m3
323.15 K, 388.88 kPa	941 kg/m3
323.15 K, 401.56 kPa	941 kg/m3
323.15 K, 413.39 kPa	941 kg/m3
323.15 K, 427.29 kPa	940.9 kg/m3
323.15 K, 439.11 kPa	940.9 kg/m3
323.15 K, 449.2 kPa	941 kg/m3
323.15 K, 461 kPa	940.9 kg/m3
323.15 K, 471.78 kPa	941 kg/m3
323.15 K, 482.73 kPa	940.9 kg/m3
323.15 K, 496.63 kPa	940.9 kg/m3
323.15 K, 509.14 kPa	940.9 kg/m3
323.15 K, 522.17 kPa	941 kg/m3
323.15 K, 538.51 kPa	941.1 kg/m3
323.15 K, 552.59 kPa	941 kg/m3
323.15 K, 567.71 kPa	940.9 kg/m3
323.15 K, 586.82 kPa	941 kg/m3
323.15 K, 621.05 kPa	941 kg/m3
323.15 K, 643.29 kPa	941.1 kg/m3
323.15 K, 663.11 kPa	941 kg/m3
323.15 K, 684.47 kPa	941.1 kg/m3
323.15 K, 711.74 kPa	941 kg/m3
323.15 K, 735.9 kPa	941.1 kg/m3
323.15 K, 761.44 kPa	941.1 kg/m3
323.15 K, 788.7 kPa	941.2 kg/m3
323.15 K, 806.43 kPa	941.1 kg/m3
323.15 K, 824.32 kPa	941.2 kg/m3
323.15 K, 839.78 kPa	941.2 kg/m3
323.15 K, 855.59 kPa	941.1 kg/m3
323.15 K, 972.85 kPa	941.4 kg/m3
323.15 K, 994.21 kPa	941.3 kg/m3
323.15 K, 1021.5 kPa	941.4 kg/m3
323.15 K, 1039.6 kPa	941.3 kg/m3
323.15 K, 1067.7 kPa	941.3 kg/m3
